Laboratory results taken from US20120141478A1, “COMPOSITIONS AND METHODS FOR DELIVERING ANTI-ACTIVATED RAS ANTIBODIES” (Cellectis S.A., priority 2006, published 2012).

Columns and labels:
K-RASmt HCT 116 cells = assay: In vitro anti-proliferative activity (WST-1) on HCT 116; format: cell-based, human
Description: Cells were incubated for 120 hours with the antibody alone (Y13259; 700 nM), or the DPV3-Y13259 conjugate (700 nM), with DPV3-maleimide as internal controls (DPV3-mal; 700 nM). Non-relevant IgG1 anti-peroxydase immunoglobulins (IgG PO; 700 nM) and an inhibitor of RAS farnesyltransferase (FTI-276; 100 nM) were used as internal controls. Results are expressed as mean±SEM of three independent experiments performed in duplicate. *p<0.05 vs not treated cells.
HCT 116 and HT-29 were seeded at 8×10^3 cells/well (96-well plates) in medium+0.5% and 10% FCS (Foetal Calf Serum) respectively. The day after, cells were treated with increasing concentrations of tested compounds in complete medium (+10% FCS) and cells were counted overtime at 24 h, 48 h, 72 h and 120 h using the WST-1 method, described hereafter. The medium was removed and 100 μl of fresh medium without FCS supplemented with 10% WST-1 solution was added on cells for 2 h at 37° C., 5% CO2. Measurement of A450 nm−A690 nm (blank=0 cells) was performed to determine cell number.
CPP-Y13259 conjugates were tested in a cell proliferation assay on mutated RAS-expressing and wild-type RAS expressing cell lines (HCT 116 and HT-29, respectively). FTI-276, a farnesyltransferase inhibitor that inhibits RAS-mediated cell proliferation constituted a positive control. […]

[1] = test system: human lung carcinoma expressing K-RAS; conditions: cited from earlier work
[2] = molecular target: mutated Ki-RAS of HCT 116 cells (human) (UniProt P01116); assay: cell-based or functional assay

Molecule | duration of the effect on HCT 116 cell proliferation (K-RASmt HCT 116 cells; 120 hours = maximum time tested) | effect on HCT 116 cell proliferation (K-RASmt HCT 116 cells; FTI-276 100 nM, positive control) | effect on tumor growth in nude mice [1] | efficient concentration, HCT 116 cell proliferation (WST-1) [2]
CSCC[C@H](NC(=O)c1ccc(NC[C@@H](N)CS)cc1-c1ccccc1)C(=O)O [FTI-276] | at least 120 hours | inhibited HCT 116 cell proliferation | block the growth of a human lung carcinoma expressing K-RAS in nude mice | –
DPV3-Y13259 conjugate (antibody) | – | – | – | 85 to 700 nM
